{"source": "ChEMBL document CHEMBL2311402", "about": "(J Med Chem, 2013)", "key": {"Tubulin (Homo sapiens)": {"molecular_target": "Tubulin (Homo sapiens) (UniProt P68371+Q9H4B7+P0DPH7+P68366+Q13509+Q71U36+P04350+Q3ZCM7+P07437+P68363+Q9BQE3+Q6PEY2+Q13885+Q9BVA1+Q9BUF5)", "assay": "Displacement of [3H]colchicine from tubulin (unknown origin) at 5 uM after 10 mins by DEAE-cellulose filter method", "assay_type": "protein-complex assay"}, "CYP2D6": {"molecular_target": "CYP2D6 (Homo sapiens, UniProt P10635)", "sequence (P10635 whole entry)": "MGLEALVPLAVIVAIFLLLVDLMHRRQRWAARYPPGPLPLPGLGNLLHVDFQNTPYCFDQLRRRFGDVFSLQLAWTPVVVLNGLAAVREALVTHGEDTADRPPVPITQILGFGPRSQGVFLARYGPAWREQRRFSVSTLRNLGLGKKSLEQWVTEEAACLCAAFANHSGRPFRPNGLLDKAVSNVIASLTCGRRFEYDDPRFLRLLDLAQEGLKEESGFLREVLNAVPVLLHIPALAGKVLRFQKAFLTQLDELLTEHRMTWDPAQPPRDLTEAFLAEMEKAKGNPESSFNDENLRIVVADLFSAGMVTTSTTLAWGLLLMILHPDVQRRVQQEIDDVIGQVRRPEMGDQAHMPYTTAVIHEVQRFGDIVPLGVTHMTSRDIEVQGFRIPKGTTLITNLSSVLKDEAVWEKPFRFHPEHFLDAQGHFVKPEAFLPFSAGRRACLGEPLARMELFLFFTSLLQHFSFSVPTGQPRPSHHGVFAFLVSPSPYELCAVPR", "assay": "Inhibition of human CYP2D6 at 1 uM", "assay_type": "ADME"}, "CYP2C9": {"molecular_target": "CYP2C9 (Homo sapiens, UniProt P11712)", "sequence (P11712 whole entry)": "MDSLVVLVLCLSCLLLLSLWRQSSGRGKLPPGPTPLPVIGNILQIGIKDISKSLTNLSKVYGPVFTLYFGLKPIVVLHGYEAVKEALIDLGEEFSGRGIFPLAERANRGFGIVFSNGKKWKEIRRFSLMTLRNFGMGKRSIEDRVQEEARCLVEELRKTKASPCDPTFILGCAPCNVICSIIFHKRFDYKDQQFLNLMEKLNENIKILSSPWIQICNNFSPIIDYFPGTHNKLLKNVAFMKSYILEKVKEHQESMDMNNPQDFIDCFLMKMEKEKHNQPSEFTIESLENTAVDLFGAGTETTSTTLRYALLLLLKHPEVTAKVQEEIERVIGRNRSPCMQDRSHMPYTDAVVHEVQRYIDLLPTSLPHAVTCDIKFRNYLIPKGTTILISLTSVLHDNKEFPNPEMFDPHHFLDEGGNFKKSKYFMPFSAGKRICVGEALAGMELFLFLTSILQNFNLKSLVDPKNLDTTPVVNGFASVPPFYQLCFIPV", "assay": "Inhibition of human CYP2C9 at 1 uM", "assay_type": "ADME"}, "CYP2C19": {"molecular_target": "CYP2C19 (Homo sapiens, UniProt P33261)", "sequence (P33261 whole entry)": "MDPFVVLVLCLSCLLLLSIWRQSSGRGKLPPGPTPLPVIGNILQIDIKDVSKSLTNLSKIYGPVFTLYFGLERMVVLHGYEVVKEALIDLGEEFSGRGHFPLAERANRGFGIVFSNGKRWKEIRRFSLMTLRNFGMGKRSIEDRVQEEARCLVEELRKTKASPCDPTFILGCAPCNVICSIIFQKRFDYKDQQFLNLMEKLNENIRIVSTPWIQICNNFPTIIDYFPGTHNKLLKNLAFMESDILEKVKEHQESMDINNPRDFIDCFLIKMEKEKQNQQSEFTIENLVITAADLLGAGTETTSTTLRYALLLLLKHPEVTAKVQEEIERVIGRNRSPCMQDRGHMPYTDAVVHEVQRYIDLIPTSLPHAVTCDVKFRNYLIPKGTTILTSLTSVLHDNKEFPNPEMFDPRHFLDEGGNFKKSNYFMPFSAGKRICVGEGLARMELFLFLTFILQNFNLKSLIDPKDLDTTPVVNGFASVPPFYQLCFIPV", "assay": "Inhibition of human CYP2C19 at 1 uM", "assay_type": "ADME"}, "CYP1A2": {"molecular_target": "T1, CYP1A2 (Homo sapiens, UniProt P05177)", "T1 sequence (P05177 whole entry)": "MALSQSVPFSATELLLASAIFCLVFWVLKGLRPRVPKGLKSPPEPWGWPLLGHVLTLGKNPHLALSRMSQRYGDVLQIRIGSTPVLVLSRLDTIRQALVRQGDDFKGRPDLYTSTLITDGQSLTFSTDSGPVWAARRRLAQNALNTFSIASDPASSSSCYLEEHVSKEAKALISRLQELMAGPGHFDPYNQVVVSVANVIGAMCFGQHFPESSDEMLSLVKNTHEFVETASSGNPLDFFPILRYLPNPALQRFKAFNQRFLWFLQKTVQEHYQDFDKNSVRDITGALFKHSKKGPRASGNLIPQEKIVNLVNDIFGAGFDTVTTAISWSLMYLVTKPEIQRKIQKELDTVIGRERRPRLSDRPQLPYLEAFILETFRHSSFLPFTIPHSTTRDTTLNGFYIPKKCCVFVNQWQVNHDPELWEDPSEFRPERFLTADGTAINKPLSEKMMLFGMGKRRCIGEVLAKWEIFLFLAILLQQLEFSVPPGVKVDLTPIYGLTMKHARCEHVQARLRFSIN", "assay": "Inhibition of human CYP1A2 at 1 uM", "assay_type": "ADME"}, "CYP3A4": {"molecular_target": "CYP3A4 (Homo sapiens, UniProt P08684)", "sequence (P08684 whole entry)": "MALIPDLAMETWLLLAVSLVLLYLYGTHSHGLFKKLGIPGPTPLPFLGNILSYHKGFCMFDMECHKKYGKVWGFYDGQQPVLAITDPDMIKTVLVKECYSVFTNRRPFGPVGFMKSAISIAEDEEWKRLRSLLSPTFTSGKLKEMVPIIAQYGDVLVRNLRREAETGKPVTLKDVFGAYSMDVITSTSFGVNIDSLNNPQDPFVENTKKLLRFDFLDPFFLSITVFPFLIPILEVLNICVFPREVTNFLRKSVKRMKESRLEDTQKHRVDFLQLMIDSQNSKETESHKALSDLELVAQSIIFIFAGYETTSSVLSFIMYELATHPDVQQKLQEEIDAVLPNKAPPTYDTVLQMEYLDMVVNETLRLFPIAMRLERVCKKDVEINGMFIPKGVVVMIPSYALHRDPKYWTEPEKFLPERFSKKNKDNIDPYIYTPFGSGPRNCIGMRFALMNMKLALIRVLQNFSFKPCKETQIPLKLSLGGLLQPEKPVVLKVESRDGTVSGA", "assay": "Inhibition of human CYP3A4 at 1 uM", "assay_type": "ADME"}, "NCI/ADR-RES": {"tested_on": "NCI/ADR-RES", "assay": "Cytotoxicity against human NCI/ADR-RES cells assessed as growth inhibition by trypan blue exclusion assay", "assay_type": "functional, cell-based"}, "U-87 MG": {"tested_on": "U-87 MG", "assay": "Induction of apoptosis in human U87MG assessed as reduction in mitochondrial membrane potential at 30 uM after 24 hrs by JC-1 staining-based fluorescence microscopy", "assay_type": "functional, U-87MG ATCC", "parameters": "scale not given: the % may be the effect or the level left"}, "HCT-15": {"tested_on": "HCT-15", "assay": "cells", "details": "Homo sapiens, HCT-15, 72 h", "description": "Cytotoxicity against human HCT15 cells assessed as growth inhibition after 72 hrs by Celltiter-Glo luminescent assay"}, "[1]": {"assay": "Cytotoxicity against human MESSA/DX5 cells assessed as growth inhibition after 72 hrs by Celltiter-Glo luminescent assay", "assay_type": "functional, cell-based", "details": "MES-SA/Dx5, 72 h"}, "HCT-116": {"tested_on": "HCT-116", "assay": "cells", "details": "Homo sapiens, HCT-116, 72 h", "description": "Cytotoxicity against human HCT116 assessed as growth inhibition after 72 hrs by Celltiter-Glo luminescent assay"}, "A549": {"tested_on": "A549", "assay": "cells", "details": "Homo sapiens, A549, 48 h", "description": "Cytotoxicity against human A549 cells assessed as growth inhibition after 48 hrs by MTT assay"}, "HT-29": {"tested_on": "HT-29", "assay": "cells", "details": "Homo sapiens, HT-29, 48 h", "description": "Cytotoxicity against human HT-29 cells assessed as growth inhibition after 48 hrs by MTT assay"}, "HeLa": {"tested_on": "HeLa", "assay": "cells", "details": "Homo sapiens, 48 h", "description": "Cytotoxicity against human HeLa cells assessed as growth inhibition after 48 hrs by MTT assay"}}, "data": [{"smiles": "COc1cc(C(=O)c2c(-c3cc[nH]c3)[nH]c3ccccc23)cc(OC)c1OC", "values": [{"measurement": "inhibition", "setting": "Tubulin (Homo sapiens)", "result": 71, "unit": "%"}]}, {"smiles": "COc1cc(Sc2c(-c3ccc(F)cc3)[nH]c3ccccc23)cc(OC)c1OC", "values": [{"measurement": "inhibition", "setting": "Tubulin (Homo sapiens)", "result": 74, "unit": "%"}]}, {"smiles": "COc1cc(C(=O)c2c(-c3ccc[nH]3)[nH]c3ccccc23)cc(OC)c1OC", "values": [{"measurement": "inhibition", "setting": "Tubulin (Homo sapiens)", "result": 79, "unit": "%"}]}, {"smiles": "COc1cc(Sc2c(-c3nccs3)[nH]c3ccccc23)cc(OC)c1OC", "values": [{"measurement": "inhibition", "setting": "Tubulin (Homo sapiens)", "result": 72, "unit": "%"}]}, {"smiles": "COc1cc(Sc2c(-c3ccncc3)[nH]c3ccccc23)cc(OC)c1OC", "values": [{"measurement": "inhibition at 1 µM", "setting": "CYP2D6", "result": 43.1, "unit": "%"}, {"measurement": "inhibition at 1 µM", "setting": "CYP2C9", "result": 100, "unit": "%"}, {"measurement": "inhibition at 1 µM", "setting": "CYP2C19", "result": 100, "unit": "%"}, {"measurement": "inhibition at 1 µM", "setting": "CYP1A2", "result": 14.5, "unit": "%"}, {"measurement": "inhibition at 1 µM", "setting": "CYP3A4", "result": 58, "unit": "%"}, {"measurement": "inhibition", "setting": "Tubulin (Homo sapiens)", "result": 91, "unit": "%"}]}, {"smiles": "COc1cc(C(O)c2c(-c3cc[nH]c3)[nH]c3ccccc23)cc(OC)c1OC", "note": "(stereo not drawn)", "values": [{"measurement": "inhibition", "setting": "Tubulin (Homo sapiens)", "result": 70, "unit": "%"}]}, {"smiles": "COc1cc(Sc2c(-c3cn[nH]c3)[nH]c3ccccc23)cc(OC)c1OC", "values": [{"measurement": "inhibition", "setting": "Tubulin (Homo sapiens)", "result": 81, "unit": "%"}]}, {"smiles": "COc1cc(Sc2c(-n3ccnc3)[nH]c3ccccc23)cc(OC)c1OC", "values": [{"measurement": "inhibition at 1 µM", "setting": "CYP2D6", "result": 10.6, "unit": "%"}, {"measurement": "inhibition at 1 µM", "setting": "CYP2C9", "result": 95.9, "unit": "%"}, {"measurement": "inhibition at 1 µM", "setting": "CYP2C19", "result": 82.5, "unit": "%"}, {"measurement": "inhibition at 1 µM", "setting": "CYP1A2", "result": 22.9, "unit": "%"}, {"measurement": "inhibition at 1 µM", "setting": "CYP3A4", "result": 94.5, "unit": "%"}, {"measurement": "inhibition", "setting": "Tubulin (Homo sapiens)", "result": 92, "unit": "%"}]}, {"smiles": "CCC1=C[C@@H]2CN(C1)Cc1c([nH]c3ccccc13)[C@@](C(=O)OC)(c1cc3c(cc1OC)N(C)[C@H]1[C@@](O)(C(=O)OC)[C@H](OC(C)=O)[C@]4(CC)C=CCN5CC[C@]31[C@@H]54)C2", "note": "[VINORELBINE]", "values": [{"measurement": "IC50", "setting": "NCI/ADR-RES", "result": 5, "unit": "µM"}]}, {"smiles": "COc1cc(Sc2c(-c3cccnc3)[nH]c3ccccc23)cc(OC)c1OC", "values": [{"measurement": "inhibition at 1 µM", "setting": "CYP2C9", "result": 102, "unit": "%"}, {"measurement": "inhibition at 1 µM", "setting": "CYP2C19", "result": 84.9, "unit": "%"}, {"measurement": "inhibition at 1 µM", "setting": "CYP1A2", "result": 23.4, "unit": "%"}, {"measurement": "inhibition at 1 µM", "setting": "CYP3A4", "result": 76.4, "unit": "%"}, {"measurement": "inhibition", "setting": "Tubulin (Homo sapiens)", "result": 88, "unit": "%"}]}, {"smiles": "COc1cc(Sc2c(-c3ccccc3F)[nH]c3ccccc23)cc(OC)c1OC", "values": [{"measurement": "inhibition", "setting": "Tubulin (Homo sapiens)", "result": 74, "unit": "%"}]}, {"smiles": "N#CC(C#N)=NNc1cccc(Cl)c1", "note": "[CARBONYL CYANIDE M-CHLOROPHENYLHYDRAZONE]", "values": [{"measurement": "Activity", "setting": "U-87 MG", "result": 50, "unit": "%"}]}, {"smiles": "COc1cc(Sc2c(-c3cc[nH]n3)[nH]c3ccccc23)cc(OC)c1OC", "values": [{"measurement": "inhibition", "setting": "Tubulin (Homo sapiens)", "result": 78, "unit": "%"}]}, {"smiles": "COc1cc(Sc2c(-n3cncn3)[nH]c3ccccc23)cc(OC)c1OC", "values": [{"measurement": "inhibition at 1 µM", "setting": "CYP2D6", "result": "< 5", "unit": "%"}, {"measurement": "inhibition at 1 µM", "setting": "CYP2C9", "result": 93.1, "unit": "%"}, {"measurement": "inhibition at 1 µM", "setting": "CYP2C19", "result": 83.9, "unit": "%"}, {"measurement": "inhibition at 1 µM", "setting": "CYP1A2", "result": "< 5", "unit": "%"}, {"measurement": "inhibition at 1 µM", "setting": "CYP3A4", "result": 51.4, "unit": "%"}, {"measurement": "inhibition", "setting": "Tubulin (Homo sapiens)", "result": 83, "unit": "%"}]}, {"smiles": "COc1cc(C(=O)c2c(-c3ccoc3)[nH]c3ccccc23)cc(OC)c1OC", "values": [{"measurement": "inhibition", "setting": "Tubulin (Homo sapiens)", "result": 77, "unit": "%"}]}, {"smiles": "COc1cc(Sc2c(-c3cccc(F)c3)[nH]c3ccccc23)cc(OC)c1OC", "values": [{"measurement": "inhibition", "setting": "Tubulin (Homo sapiens)", "result": 75, "unit": "%"}]}, {"smiles": "CC(=O)O[C@H]1C(=O)[C@@]2(C)[C@H]([C@H](OC(=O)c3ccccc3)[C@]3(O)C[C@H](OC(=O)[C@H](O)[C@@H](NC(=O)c4ccccc4)c4ccccc4)C(C)=C1C3(C)C)[C@]1(OC(C)=O)CO[C@@H]1C[C@@H]2O", "note": "[PACLITAXEL]", "values": [{"measurement": "IC50", "setting": "HCT-15", "result": 90, "unit": "nM"}]}, {"smiles": "CC[C@]1(O)C[C@@H]2CN(CCc3c([nH]c4ccccc34)[C@@](C(=O)OC)(c3cc4c(cc3OC)N(C)[C@H]3[C@@](O)(C(=O)OC)[C@H](OC(C)=O)[C@]5(CC)C=CCN6CC[C@]43[C@@H]65)C2)C1", "note": "[VINBLASTINE]", "values": [{"measurement": "IC50", "setting": "[1]", "result": 144, "unit": "nM"}, {"measurement": "IC50", "setting": "HCT-116", "result": 3, "unit": "nM"}, {"measurement": "IC50", "setting": "A549", "result": 20, "unit": "nM"}, {"measurement": "IC50", "setting": "HCT-15", "result": 24, "unit": "nM"}, {"measurement": "IC50", "setting": "HT-29", "result": 30, "unit": "nM"}, {"measurement": "IC50", "setting": "HeLa", "result": 10, "unit": "nM"}]}, {"smiles": "COc1cc(C(=O)c2c(-c3ccco3)[nH]c3ccccc23)cc(OC)c1OC", "values": [{"measurement": "inhibition", "setting": "Tubulin (Homo sapiens)", "result": 78, "unit": "%"}]}]}
